Columns and labels:
[1] = tested on: etoposide-treated IMR-90 cells; assay: Etoposide-induced senescence model, resazurin cell viability (screen and dose-response); assay type: cell-based, human; details: 3 days
How it was run: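 IMR-90 fibroblasts made senescent with 50 μM etoposide for 2 days, then 4 days recovery before plating. Compounds at 10 μM or 1 μM final (screen) or three-fold dilutions (1% DMSO) for 3 days, then 0.15 mM resazurin 1 day, fluorescence 550/590 nm. Viability expressed as fraction of untreated controls; biological duplicates.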

primary human T-cells = assay: Cytotoxicity to T-cells in vitro; assay type: cell-based; details: for T-cell death: at about 0.1 μM; for IC50: primary human T-cells, read-out: T-cell cytotoxicity IC50
[2] = Phase II, lung carcinoma; cited from earlier work
HEK293 cells = assay: Cytotoxicity against HEK293 cells (resazurin); assay type: cell-based, human; details: 3 days treatment; curve-fitting, two biological replicates
Description: (§1) Measuring cytotoxicity against HepG2 and HEK293 cells. Cytotoxicity in human embryonic kidney (HEK293) and liver carcinoma (HepG2) cells was assayed as above using a resazurin assay. Cells were obtained from ATCC (ATCC CRL-1573 and HB-8065), passaged <10 times, and grown in Dulbecco's modification of Eagle's Medium (DMEM: Corning 10^−013-CV) supplemented with 10% FBS and 1% penicillin-streptomycin. 99 μL of cells were plated into each well of a 96-well clear flat-bottom, black polystyrene tissue-culture-treated plate at a density of ˜10+ cells/well, and plates were incubated overnight for adhesion. The day after plating. 1 μL of each compound, prepared as two-fold serial dilutions of 5 mM stock solutions in DMSO, was added to each well. Cells were incubated for 3 days, after which resazurin was added to each well to a final concentration of 0.15 mM. After an additional 1 day of incubation, the fluorescence excitation/emission at 550/590 nm was read using a SpectraMax M3 plate reader. Experiments were performed in biological duplicate. IC50 values were determined by normalizing with respect to the fluorescence intensity values of untreated control cells on day 3, as described in Calculation of cellular viability values in dose-response curves above.

HepG2 cells = assay: Cytotoxicity against HepG2 cells (resazurin); assay type: cell-based, human; details: 3 days treatment; curve-fitting, two biological replicates
Description: as §1

human red blood cells = assay: Hemolysis assay; assay type: cell-based; details: up to a final concentration of 100 μM; 1 h at 37° C.
Description: Hemolysis assay. Whole human blood containing EDTA (Innovative Resarch IWB1K2E) was centrifuged at 120×g at 4° C., for 5 min and resuspended in Dulbecco's PBS (DPBS: VWR 02-0119-0500). These washing steps were repeated until the supernatant was clear. Red blood cells were then resuspended in DPBS to 5×10^8 cells/mL, and 100 μL of cells was plated into each well of a 96-well clear round-bottom plate. Compounds were added to the indicated concentrations, and DMSO was used as a vehicle. Samples were incubated for 1 h at 37° C., without shaking, after which plates were centrifuged at 1500×g at room temperature for 5 min to pellet cells. 60 μL of the supernatant from each sample was then transferred to a 96-well clear flat-bottom plate, and the absorbance was read at 405 nm using a SpectraMax M3 plate reader to quantify the amount of soluble hemoglobin. Fractional hemolysis was determined by linearly interpolating absorbance values with respect to a positive control (saturation with 10% Triton X-100) and a negative control (1% DMSO vehicle). Results are depicted in FIG. 14.

[3] = tested on: Salmonella typhimurium TA100; assay: Genotoxicity assay (Ames 384-ISO test); assay type: cell-based; details: 100 μM
Description: Genotoxicity assay. An Ames 384-ISO test (6041-1S) from Environmental Bio-Detection Products, Inc, was used following the manufacturer's instructions. Briefly. Salmonella typhimurium TA100 was grown overnight (16-18 h) at 37° C., with shaking at 300 rpm and treated with the provided exposure media and compound samples at the final concentrations indicated. Treatment with the provided 4-nitroquinoline 1-oxide (4NQO), a mutagen, was used as a positive control. Cells were then added to the provided reversion solution, and each sample was split into 48 wells of 384-well plates. Plates were incubated at 37° C., for 2 days, after which the number of revertant (yellow-colored) wells corresponding to each sample was counted. […] An overnight bacterial culture was diluted 1:10.000 in LB medium (Becton Dickinson 244620) and plated using 99 μL working volumes into the wells of a clear flat-bottom 96-well plate. One μL of two-fold dilutions of each test compound in DMSO, starting from a final concentration of 500 μM, was added across wells, and plates were sealed and incubated overnight at 37° C., to determine bacterial growth.

[4] = cited from earlier work
Mcl-1 = Mcl-1 (Homo sapiens, UniProt Q07820); assay: Mcl-1 TR-FRET; assay type: binding
ex vivo human skin = assay: Ex vivo aged human skin model
Description: IBX-100 was first tested in ex vivo skin for safety.
IBX-100 was further tested in ex vivo skin for efficacy, p16 mRNA expression was measured after 5 days of topical application of IBX-100 on an older subject (e.g. Person, Fitzpatrick type 2) skin, and compared to vehicle values.

[5] = tested on: wounded ex vivo human skin; assay: Ex vivo wounded skin model
Description: For the younger skin sample, RNA expression levels of collagen (Col1a1) and matrix metallopeptidase 9 (MMP9) were additionally measured. Higher levels of Col1a1 may be associated with senescence and scarring.
IBX-100 was tested again for safety in a combination dosing regimen. IBX-100 was formulated as a 10% solution in 100% DMSO and applied directly by pipetting 5 μL on wounded younger skin (e.g. Person, Fitzpatrick type 2-3). Additionally, IBX-100 was administered to the culture medium at a final concentration of about 100 μg/mL, by adding 1 μL of a 100 mg/mL solution in DMSO to 1 mL of culture media, as a model of systemic administration.
To test efficacy. IBX-100 was applied both topically and systemically as described above every 24 h for 5 days. On day 6, the skin biopsies were excised, and p16. Col1a1, and MMP9 RNA expression was measured inside each wound. Compared to vehicle (e.g., DMSO) values, p16. Col1a1, and MMP9 expression was decreased, on average, by ˜30%. ˜ 60%, and ˜60%, respectively, with administration of IBX-100 (FIG. 19).

[6] = Cytotoxicity to T-cells in vitro; assay type: cell-based, human; details: human, primary human T-cells; read-out: T-cell cytotoxicity IC50
[7] = 10 μM, active: control viability >0.5, Snc/control ratio <0.7
[8] = topical and systemic every 24 h for 5 days, day 6

Sequence of Mcl-1 (Q07820 whole entry, species assumed): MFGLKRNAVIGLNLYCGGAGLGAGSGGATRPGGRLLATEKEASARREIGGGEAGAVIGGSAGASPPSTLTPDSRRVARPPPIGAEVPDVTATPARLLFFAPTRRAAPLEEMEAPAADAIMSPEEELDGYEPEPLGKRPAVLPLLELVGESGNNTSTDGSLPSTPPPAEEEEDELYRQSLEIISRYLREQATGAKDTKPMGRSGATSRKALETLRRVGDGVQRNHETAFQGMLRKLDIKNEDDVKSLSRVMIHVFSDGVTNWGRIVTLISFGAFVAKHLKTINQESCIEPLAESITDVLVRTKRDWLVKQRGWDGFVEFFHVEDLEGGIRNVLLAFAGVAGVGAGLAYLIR

Structure (SMILES)	senolytic activity in screen ([1]; 1 μM)	senolytic activity in screen [1, 7]	T-cell death (primary human T-cells)	IC50 (primary human T-cells)	side effects in patients [2]	IC50 (HEK293 cells)	IC50 (HepG2 cells)	hemolysis (human red blood cells)	reversion of bacterial cultures (mutagenic potential) [3]	bioavailability [4]	IC50 (Mcl-1)	safety in ex vivo skin (ex vivo human skin; 5% topical ointment in 10% DMSO: 45% PEG300:45% water, older and younger subject skin)	average decrease in p16 mRNA expression compared to vehicle (ex vivo human skin; 5 days of topical application, older subject skin, three samples)	safety in wounded ex vivo skin ([5]; 10% solution in DMSO topically and about 100 μg/mL in culture medium)	average decrease in Col1a1 RNA expression inside wound compared to vehicle [5, 8]	average decrease in MMP9 RNA expression inside wound compared to vehicle [5, 8]	average decrease in p16 RNA expression inside wound compared to vehicle [5, 8]	IC50 [6]
CC1(C)CCC(c2ccc(Cl)cc2)=C(CN2CCN(c3ccc(C(=O)NS(=O)(=O)c4ccc(N[C@H](CCN5CCOCC5)CSc5ccccc5)c(S(=O)(=O)C(F)(F)F)c4)cc3)CC2)C1 [ABT-263]	inactive	active	substantial cell death	~1000 nM	thrombocytopenia and neutropenia were common side effects													
CN(C)CC[C@H](CSc1ccccc1)Nc1ccc(S(=O)(=O)NC(=O)c2ccc(N3CCN(Cc4ccccc4-c4ccc(Cl)cc4)CC3)cc2)cc1[N+](=O)[O-] [ABT-737, reference compound]	inactive	active	substantial cell death	~1000 nM		28.8 µM	132 µM	did not induce significant hemolysis	did not induce significant reversion	limited bioavailability								
CCOc1ccc(NC(=O)CSc2nc3ccc(NC(=O)c4ccccc4C)cc3s2)cc1 [compound 1]											> 100 µM	No adverse effects	approximately 40%	no adverse effects	~60%	~60%	~30%	> 100 µM
